Where no end group is shown, it is not given here.
Legend:
[1] = test system: mice that did not receive carrageenan; test: Randall-Selitto test, mechanical high-pressure stimuli, no pain inducer; assay type: in vivo; settings: mice without carrageenan; compared to intraplantar saline and intraperitoneal morphine groups
Method: (§1) A cone-shaped rod was placed at one of the hind paws of mice treated with GsMTx4 and force was applied. […] A pain response was characterized as either raising the hind paw, rolling up the tail, or making a shrill sound.
(§2) Two groups of 8 mice each were injected with either physiological saline solution or the pain inducer carrageenan (2% solution, 50 μL, intraplantar) at their hind paws. After the first injection, either GsMTx4 (40 μg/150 g body weight) or for the positive control group, morphine (1.5 mg/150 g) was intraperitoneally injected to these mice. The Randall-Selitto test was carried out 4 hours later. Mechanical stimuli were applied in an area in the paw between the thumb and index finger. Threshold weight data were represented as percentage values against the threshold weight for mice treated saline solution (negative control).

[2] = test system: mice with neuropathic pains; test: von Frey test under a neuropathic pain model; assay type: in vivo; settings: tibial and sural nerves cut; 50 μg/200 g body weight; 4 hours after injection; versus saline control
Text: Neuropathic pain was induced to mice according to the method reported by Lee and others (Lee, B. et al., Neuroreport 11:657˜661, 2000). Mice were put under anesthesia and their skin was excised in the thighs to expose the tibial, sural and common peroneal nerves. Out of these, the tibial and sural nerves were bound together and cut off. Mice were then allowed to recuperate for 6 days after the operation and the monitoring for the presence of neuropathic pain began 1 week after the operation. The analgesic effect of GsMTx4 on those mice suffering from neuropathic pain was tested by the von Frey test as in Example 9.
Mice with neuropathic pains were divided into two groups of 9. To the first group, GsMTx (50 μg/200 g body weight) was injected and to the second group, physiological saline solution for control. 4 hours after the injection of GsMTx4, mechanical stimuli were applied to these mice with von Frey filaments. The width of the von Frey filament that evoked a nociceptic (flexor) reflex was recorded before and after the surgery, and the data was expressed as the percentage of the latter width in relation to the former.

[3] = test system: stretch-activated channels (SACs); settings: administered to the hearts of rabbits after atrial fibrillation was induced with high level stress; cited from earlier work
cell swelling = settings: Sachs et al., J. Gen. Physiol. 2000; cited from earlier work
carrageenan-treated mice [4] = test: Randall-Selitto test, mechanical hyperalgesia heightened by carrageenan; assay type: in vivo
Method: In order to probe mechanical hyperalgesia in mice, the present inventors conducted the Randall-Selitto test, in which severe mechanical stress is applied to inflict pain. In detail, force is applied to a sharp-ended rod in touch with a hind paw of a mouse. As a measure of pain sensitivity, the weight of the rod at the pain threshold is recorded.
as §1, §2

mice = test: Tail flick test, temperature stimuli; assay type: in vivo; settings: no pain inducer; GsMTx4 40 μg/150 g intraperitoneal; compared to morphine 10 mg/150 g; 30 to 4 hours later
Text: The present inventors looked into GsMTx4 for its possible analgesic activity on pain from temperature stimuli. Mice were irradiated with infrared in their tails and monitored for their endurance against heat (tail flick test). The analgesic effect of GsMTx4 was examined by comparing data from a group of mice suffering from induced pain with those from a non-induced group (Pitcher G. M. et al., Journal of Neuroscience Methods, 87(2):185˜193, 1999).
Three groups of 8 mice each respectively received an intraperitoneal injection of either physiological saline solution (100 μL) as the negative control, or morphine (10 mg/150 g body weight) as the positive control, or GsMTx4 (40 μg/150 g). They were then subject to the tail flick test 30 to 4 hours later.

[5] = test system: mice that did not receive carrageenan; test: von Frey test, mechanical low-pressure stimuli, no pain inducer; assay type: in vivo; settings: mice without carrageenan; compared to intraplantar saline and intraperitoneal morphine groups
Method: The present inventors conducted the von Frey test in order to see whether GsMTx4 of this invention has an analgesic effect against rubbing or other weak mechanical stimuli inside a living body. When a pain inducer is administered only to one of the hind paws of a mouse, the affected paw becomes sensitive and feels pain from even small mechanical stimuli. The von Frey test involves measuring the weight difference at the pain threshold between the two hind paws as one varies the width of the von Frey hair involved in giving the stimuli (http://www.2biol.com/2biol analgesia.htm; Pitcher, G. M. et al., Journal of Neuroscience Methods 87(2):185˜193, 1999).
Two groups of 8 mice each received a 50-μL intraplantar injection of either physiological saline solution or 2% carrageenan at only one of their hind paws. After the first injection, either GsMTx4 (40 μg/150 g body weight) or for the positive control group, morphine (10 mg/150 g) was intraperitoneally injected to these mice. These mice were rubbed with von Frey hairs a half to 4 hours later.
Mechanical stimuli were applied in an area in the paw between the thumb and index finger. Threshold weight data were represented as percentages against the threshold weight for mice treated saline solution (negative control).

carrageenan-treated mice [6] = test: von Frey test, mechanical allodynia heightened by carrageenan; assay type: in vivo
Text: Mechanical stimuli were applied in an area in the paw between the thumb and index finger.

carrageenan-treated mice [7] = test: Weight-bearing test; assay type: in vivo
Method: In order to monitor behavioral changes brought by complex mechanical stimuli, the present inventors conducted the weight-bearing test, in which complex mechanical pain is assessed as the stimulus is varied. In detail, one the hind limbs of a mouse was injected with pain inducers such as carrageenan and formalin to incur pain. In such a case, the mouse puts less weight in the injected hind limb, but puts more weight than usual in the other, normal hind limb and this difference in weight is recorded as a measure of pain.
More specifically, the principles behind this test are as follows. When a mouse receives an injection of pain inducers in only one of the hind paws, it puts more weight than usual in the other hind paw. This difference in the weight balance serves as a measure of the mouse's pain. In the present example, such weight difference per unit body weight of the mouse was reported for comparison.
Two groups of 8 mice each received an intraplantar injection of either 2% carrageenan (50 μL) or for the negative control group, physiological saline solution (100 μL) at only one of their hind paws. To the carrageenan-treated mice, either GsMTx4 (40 μg/150 g body weight) or for the positive control group, morphine (10 mg/150 g) was intraperitoneally and their weight balances were monitored 1 to 6 hours later.

[8] = carrageenan-treated mice, GsMTx4 40 μg/150 g intraperitoneal

Compound | analgesic effect against mechanical high pressure [1] | reflex threshold against mechanical stimuli (von Frey filaments) [2] | effect on atrial fibrillation [3] | effect on cell swelling associated with congestive heart failure (cell swelling) | pain sensitivity threshold (carrageenan-treated mice [4]; 2% carrageenan 50 μL intraplantar, intraperitoneal GsMTx4 40 μg/150 g body weight or morphine 1.5 mg/150 g) | time after injection at which the analgesic effect occurred (carrageenan-treated mice [4]; [8]) | time the analgesic effect lasted (carrageenan-treated mice [4]; [8]) | analgesic activity against temperature stimuli (mice) | analgesic effect against mechanical low pressure [5] | hypersensitivity (pain threshold for hair force) (carrageenan-treated mice [6]; 2% carrageenan 50 μL intraplantar, intraperitoneal GsMTx4 40 μg/150 g or morphine 10 mg/150 g, a half to 4 hours later) | weight difference between hind limbs (carrageenan-treated mice [7]; 2% carrageenan 50 μL intraplantar, GsMTx4 40 μg/150 g or morphine 10 mg/150 g intraperitoneally, 1 to 6 hours later) | pain sensitivity threshold (carrageenan-treated mice [4]; mouse, in vivo, ip) | hypersensitivity (pain threshold for hair force) (carrageenan-treated mice [6]; mouse, in vivo, ip) | weight difference between hind limbs (carrageenan-treated mice [7]; mouse, in vivo, ip)
GsMTx4: Spider toxin peptide of 34 amino acids (SEQ. ID NO 1), 3 disulfide bonds, mechanosensitive ion channel inhibitor; produced recombinantly in Pichia pastoris (GCLEFWWKCNPNDDKCCRPKLKCSKLFKLCNFSF; disulfide (positions not given here); not fully specified (bridges); ends not checked; listed as Grammostola spatulata) | evident | elevation of the reflex threshold | relieve symptoms of atrial fibrillation | prevent cell swelling | increased back substantially | 30 min | approximately 4 hours | either negligible or no analgesic activity | observed, albeit weakly | reduce hypersensitivity | reverted back to a low value |  |  | 
CN1CC[C@]23c4c5ccc(O)c4O[C@H]2[C@@H](O)C=C[C@H]3[C@H]1C5 [morphine, reference compound] |  |  |  |  |  |  |  |  |  |  |  | increased back substantially | reduce hypersensitivity | reverted back to a low value
